Inhibition and Activity data for five compounds are collected here from ChEMBL document CHEMBL3588790, “Identification of p-hydroxybenzyl alcohol, tyrosol, phloretin and its derivate phloridzin as tyrosinase substrates” (Bioorg Med Chem, 2015).

The structures appear in SMILES notation. Activity calls are given as the source filed them. The rule behind the calls is not given here.

The target of assay [1] is T1, Tyrosinase (Agaricus bisporus) (UniProt O42713).
T1 sequence (whole entry): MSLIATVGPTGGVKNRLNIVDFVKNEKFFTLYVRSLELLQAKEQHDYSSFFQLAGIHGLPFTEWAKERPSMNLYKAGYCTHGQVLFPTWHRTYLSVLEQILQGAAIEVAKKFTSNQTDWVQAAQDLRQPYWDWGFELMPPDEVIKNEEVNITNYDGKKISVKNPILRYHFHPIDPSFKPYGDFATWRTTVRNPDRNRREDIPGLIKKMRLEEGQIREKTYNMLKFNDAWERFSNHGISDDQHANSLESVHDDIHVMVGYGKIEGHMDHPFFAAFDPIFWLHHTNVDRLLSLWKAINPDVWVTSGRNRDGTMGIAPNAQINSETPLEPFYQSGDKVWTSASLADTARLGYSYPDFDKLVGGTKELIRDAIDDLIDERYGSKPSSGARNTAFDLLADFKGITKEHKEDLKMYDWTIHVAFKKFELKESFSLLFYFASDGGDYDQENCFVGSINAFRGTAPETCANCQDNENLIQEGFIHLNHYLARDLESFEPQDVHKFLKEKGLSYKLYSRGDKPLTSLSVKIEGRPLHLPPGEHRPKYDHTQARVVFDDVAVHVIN
Description: Inhibition of diphenolase activity of mushroom tyrosinase using L-dopa as substrate at 1.5 mM by spectrophotometric assay.

Assay [2] addresses T1, Tyrosinase (Agaricus bisporus). Description: Activity at mushroom tyrosinase assessed as decrease in absorbance using DOMA as substrate by oxygen consumption assay.
The target is the same in assay [3]. The assay can be described thus: Inhibition of diphenolase activity of mushroom tyrosinase using L-dopa as substrate at 0.5 mM by spectrophotometric assay.
The target is the same in assay [4]. Description: Activity at mushroom tyrosinase assessed as decrease in absorbance using L-dopa as substrate by oxygen consumption assay.
Assay [5] has the same target. The assay can be described thus: Inhibition of diphenolase activity of mushroom tyrosinase using L-dopa as substrate at 1 mM by spectrophotometric assay.
Assay [6] shares this target. The assay can be described thus: Activity at mushroom tyrosinase by spectrophotometric assay in presence of hydrogen peroxide.
The target is the same in assay [7]. Description: Activity at mushroom tyrosinase assessed as decrease in absorbance using L-tyrosine as substrate by oxygen consumption assay.
Assay [8] has the same target. The assay can be described thus: Inhibition of diphenolase activity of mushroom tyrosinase using L-dopa as substrate at 0.1 mM by spectrophotometric assay.
Assay [9] has the same target. The assay can be described thus: Inhibition of monophenolase activity of mushroom tyrosinase using L-tyrosine as substrate at 0.1 mM by spectrophotometric assay.
Assay [10] has the same target. As to conditions: 0.15 mM.
Description: Inhibition of monophenolase activity of mushroom tyrosinase using L-tyrosine as substrate at 0.15 mM by spectrophotometric assay
Assay [11] shares this target. Description: Inhibition of diphenolase activity of mushroom tyrosinase using L-dopa as substrate at 0.05 mM by spectrophotometric assay.
Assay [12] shares this target. Description: Inhibition of monophenolase activity of mushroom tyrosinase using L-tyrosine as substrate at 0.05 mM by spectrophotometric assay.
For assay [13] the target is unchanged. The following applies: 0.15 mM. The source holds these as a separate data set.
Description: Inhibition of diphenolase activity of mushroom tyrosinase using L-dopa as substrate at 0.15 mM by spectrophotometric assay
For assay [14] the target is unchanged. Description: Inhibition of diphenolase activity of mushroom tyrosinase using L-dopa as substrate at 6 mM by spectrophotometric assay.
For assay [15] the target is unchanged. Description: Inhibition of diphenolase activity of mushroom tyrosinase using L-dopa as substrate at 9 mM by spectrophotometric assay.
For assay [16] the target is unchanged. Description: Inhibition of monophenolase activity of mushroom tyrosinase using L-tyrosine as substrate at 6 mM by spectrophotometric assay.
The target is the same in assay [17]. The assay can be described thus: Inhibition of monophenolase activity of mushroom tyrosinase using L-tyrosine as substrate at 3 mM by spectrophotometric assay.
Assay [18] shares this target. The assay can be described thus: Inhibition of diphenolase activity of mushroom tyrosinase using L-dopa as substrate at 3 mM by spectrophotometric assay.
For assay [19] the target is unchanged. The assay can be described thus: Inhibition of monophenolase activity of mushroom tyrosinase using L-tyrosine as substrate at 9 mM by spectrophotometric assay.
Assay [20] shares this target. The assay can be described thus: Activity at mushroom tyrosinase assessed as decrease in absorbance at 475 nm using L-dopa as substrate by spectrophotometric assay in presence of sodium periodate.
Assay [21] has the same target. The assay can be described thus: Inhibition of monophenolase activity of mushroom tyrosinase using L-tyrosine as substrate at 0.2 mM by spectrophotometric assay.
For assay [22] the target is unchanged. Description: Inhibition of diphenolase activity of mushroom tyrosinase using L-dopa as substrate at 0.2 mM by spectrophotometric assay.

Take `OCCc1ccc(O)cc1`: the inhibition was 18.3% in [1], 14.3% in assay [3] and 18.7% in assay [5]. Also, the outcome in assay [2], in assay [4], in assay [6] and in assay [7] was Active.

Regarding `O=C(CCc1ccc(O)cc1)c1c(O)cc(O)cc1O[C@@H]1O[C@H](CO)[C@@H](O)[C@H](O)[C@H]1O`, the inhibition in [8] is 45.3%; in [9] it was 34%; in assay [10], 47.7%; in assay [11] it was 31.4%; in [12], 9%; in [13], 52.7%. The outcome in [2], in [4], in assay [6] and in assay [7] was Active.

With `O=C(O)Cc1ccccc1`, the inhibition in assay [14] came to 41.6%; in assay [15], 58.1%; in assay [16], 39.4%; in assay [17] it was 19.7%; in [18], 18.2%; in assay [19], 55.4%.

Consider `O=C(CCc1ccc(O)cc1)c1c(O)cc(O)cc1O`, for which the inhibition was found to be 46.2% in [8]; 17.9% in [9]; 28.3% in [11]; 4.2% in assay [12]; 48.5% in assay [21]; 62.6% in [22]. Also, the result in assay [20] and in assay [6] was Active.

As to `OCc1ccc(O)cc1`, the inhibition in assay [1] is 38.9%; in assay [3], 15.2%; in assay [5], 28.4%. In addition, the result in assay [2], in assay [4], in [6] and in assay [7] was Active.
